Experimental data: US6911429B2, “Compositions and methods for treating cellular response to injury and other proliferating cell disorders regulated by hyaladherin and hyaluronans” (Transition Therapeutics Inc., priority 1999, dated 2005)
Where no end group is shown, it is not given here.

Tests used:
[1] = system: RHAMMv4 overexpressing cells; test: podosome formation in RHAMMv4 overexpressing cells (cortactin marker); type: cell-based; conditions: RHAMMv4 overexpression
Text: (§1) To further illustrate the relationship between RHAMM, erk activity and podosome formation in transient stage cells, podosome formation is shown to be inhibited by inhibitors of erk activity. […] Overexpression of RHAMMv4 results in a sustained high production of podosomes, detected by the marker protein cortactin (A). […] Overexpression of RHAMMv4 enhances cell migration into wounds (D) compared to the parent 10T1/2 fibroblast line that produces little RHAMMv4 (E).

[2] = system: RHAMMv4 overexpressing cells; test: cell migration into wounds / wound repair of RHAMMv4 overexpressing cells; type: cell-based
Text: as §1

[3] = system: MDA231 human breast cancer cells; test: cell motility of MDA231 breast cancer cells; type: cell-based
MDA231 cells = test: in vitro invasion of MDA231 cells; type: cell-based, human
ND4 transgenic mice = test: ND4 transgenic mouse model of multiple sclerosis (demyelination clinical signs); type: in vivo; conditions: 10 mg/kg intraperitoneally three times per week
Procedure: Briefly, transgenic mice (ND 4) bearing 70 copies of the transgene for DM20, a myelin proteolipid protein, were utilized for assignment of scores based upon clinical signs of demyelination. Clinical signs which were assessed included general shaking, seizures, head jerk, hind-limb and tail shiver, unsteadiness, wobbly gait and limp tail. Within each sign score between 0-4 was given: where zero score means absent and score 4 means constant and uncontrollable appearance of the sign of the disease. Experimental groups of mice were divided into 4; each group contained 5 animals: one normal, one ND 4 mouse untreated and three ND 4 mice treated with RHAMM mimetic—P-peptide. Animals were treated three times per week with 10 mg/kg of P-peptide intraperitonealy. Peptide was resuspended in 300 μl of PBS.
The severity of the clinical signs increase until maximum around 6 months with animals dying around 8 to 9 months of age. The clinical signs assessed include general shaking, seizures, head jerk, hind limb and tail shiver, wobbly gait and limp tail. The scale of zero (absence) to four (constant and uncontrollable movements) was used for each of the clinical signs. […]

NOD mice = test: NOD mouse model of type I diabetes mellitus; type: in vivo; conditions: 5 mg/kg i.p. three times a week for 23 weeks
Procedure: There are different colonies of NOD mice and there can be some variability between the colonies. The colony used develops the disease between 15-20 weeks of age and there is a 70-80% incidence of diabetes mellitus. The mice treated were divided into two groups of 10 animals; the first group being treated with P-16 peptide and the other group comprising of the control group, which was treated with saline. Once the NOD mice were 5 weeks old, the P-16 peptide was injected three times a week interperitoneally at a dose of 5 mg/kg for 23 weeks. The untreated mice and five mice from the treated group were sacrificed at 28 weeks of age. The remaining five mice from the treated group were taken off the peptide treatment at 28 weeks of age and were assessed for the disease after 16 weeks.
There are different colonies of NOD mice and there can be some variability between the colonies. The colony used develops the disease between 15-20 weeks of age and there is a 70-80% incidence of diabetes mellitus. The mice treated were divided into three groups of 10 animals; the first two groups being treated with S-3 and S-7 peptides, and the third group comprising of the control group, which was treated with saline. Once the NOD mice were 5 weeks old, the S-3 and S-7 peptides were injected three times a week intraperitoneally at a dose of 0.1 mg/kg for 23 weeks.

EAE in SJL/J mice = test: EAE mouse model for multiple sclerosis; type: in vivo; conditions: 5 mg/kg i.p. daily; failed to reach statistical significance
Procedure: Acute EAE was induced by immunization of 3 months old SJL/J female mice (Jackson Lab.; Bar Harbor, Me.) with the MBP and PTX pertussis toxin. Each animal received a sub-cutaneous injection at tail base of 200 μg MBP in 0.1 ml of CFA and received an intravenous injection of 200 ng of PTX. Pertussis toxin was injected again 48 hours later. Mice (4 animals per group) were treated with one of the following treatments through intraperitoneal injections: P-32 peptide at a dose of 5 mg/kg daily; S-7 peptide at a dose of 0.1 mg/kg daily starting on the day of first immunization. Treatment was stopped at time of sacrifice. Mice were monitored daily from day 7 after immunization for clinical signs of EAE and were scored on a scale of 0 to 5. A score of 0 represented the absence of signs while a score of 5 was given to moribund animals.

excisional skin wound = test: rat punch biopsy excisional skin wound model; type: in vivo; conditions: local application
[4] = binding to hyaluronic acid (HA)
Text: The present invention provides a method of similar sensitivity but which is cheaper and more reliable. The method is based on using HA binding partners discovered using the techniques described above for detecting RHAMM binding partners. Using a phage display library to bind to biotinylated HA permitted identification of five particular species of HA binding motifs described in SEQ. ID NOS: 6-10. This was accomplished by isolating phage that attached to HA which were further isolated, rescreened twice and recloned. The clones were then bound to biotinylated HA-sepharose beads and only those phage that could be released with unlabeled HA were retrieved, recloned and sequenced. Five clones comprising the sequences identified above were detected. These sequences all bind to HA and are useful for detecting HA in serum and tissues in an assay described below.

[5] = system: bleomycin-induced lung fibrosis; test: bleomycin-induced lung injury / fibrosis model; type: in vivo
Text: As described in more detail below, the RHAMM peptide mimetics prevent these pathological events, particularly recruitment and activation of macrophages, from occurring following bleomycin-induced lung fibrosis (FIG. 32). In particular, the infiltration of inflammatory cells and local responses such as fibrosis is completely absent with treatment. […] Therefore, these reagents should be effective for treating lung diseases that involve recruiting macrophages and inflammatory cells, as well as fibrosis. FIG. 34 illustrates motility of BAL cells four days after injury in response to administration of RHAMM peptides. […] Values represent mean and standard error with three animals studied for each condition and at least 20 cells tracked per animal studied. Increased N-acetyl-β-glucosamimidase activity is a known marker for fibrosis in lung tissue. […] Briefly, bleomycin injury results in an increased glucosamimidase activity (* p<0.01 versus controls and saline animals). […] Values represent mean and standard error with five animals studied for each condition. FIG. 35B illustrates that mRNA of collagen type la in lungs harvested 4 days after injury is reduced in response to administration of HA binding Peptide A. Collagen type la is common indicator of fibrosis in lung tissue injury models as used throughout this invention. […] The data shown are representative of three independent experiments. The ability of HA binding peptides to inhibit fibrosis is further illustrated by histological analysis. FIG. 36 are micrographs from a histological analysis of lung tissue treated with and without HA binding Peptide A after bleomycin injury. Panels (a-c) show tissue after treatment with saline alone, and panels (d-f) show tissues injured by bleomycin treatment.

human fibroblasts = test: velocity of cell locomotion of human fibroblasts on fibronectin; type: cell-based; conditions: 0.1-50 ng/ml, 16 hrs
Procedure: To quantify the effect of RHAMM sequence (amino acid residues 423-432; 423-432AA) to alter velocity of cell locomotion human fibroblasts were seeded on T-12.5 fibronectin coated flasks using A-MEM supplemented with glucose and 10% FBS. 2.5×10^4 cells were seeded and cells incubated for 4 hrs at 37° C. After incubation time cells were treated with increasing concentrations of RHAMM sequence peptide (423-432 AA, 0.1, 1.0, 5.0, 10 and 50 ng/ml) and cell locomotion was monitored over the period of 16 hrs on a 37° C. using 10× modulation objective (Zeiss, Germany) attached to a Zeiss Axiovert 100 inverted microscope equipped with Hoffman Modulation contrast optical filters (Greenvale, N.Y.). Cell images were captured with a CCD video camera module attached to a Hamamatsu CCD camera controller. Motility was assessed using Northern Exposure 2.9 image analysis software (Empix Imaging, Mississauga, Ontario). Nuclear displacement of 7-10 cells was measured and data were subjected to statistical analysis. Statistically significant (P<0.05) differences between means were assessed by the unpaired Student's T-test method, performed using Microsoft Excel '97 software.

invasive cells = test: motility of invasive cells treated with RHAMM exon peptides or antibodies (FIG. 16); type: cell-based; conditions: P<0.001 for peptide vs scrambled peptide
Text: This effect is quantified in the graph shown in 16C and is highly significant (P<0.001, student's T test).

[6] = target: RHAMM binding to fibronectin (Homo sapiens, UniProt P02751); test: RHAMM binding to fibronectin (ELISA)
Sequence of RHAMM binding to fibronectin (P02751 32-2477): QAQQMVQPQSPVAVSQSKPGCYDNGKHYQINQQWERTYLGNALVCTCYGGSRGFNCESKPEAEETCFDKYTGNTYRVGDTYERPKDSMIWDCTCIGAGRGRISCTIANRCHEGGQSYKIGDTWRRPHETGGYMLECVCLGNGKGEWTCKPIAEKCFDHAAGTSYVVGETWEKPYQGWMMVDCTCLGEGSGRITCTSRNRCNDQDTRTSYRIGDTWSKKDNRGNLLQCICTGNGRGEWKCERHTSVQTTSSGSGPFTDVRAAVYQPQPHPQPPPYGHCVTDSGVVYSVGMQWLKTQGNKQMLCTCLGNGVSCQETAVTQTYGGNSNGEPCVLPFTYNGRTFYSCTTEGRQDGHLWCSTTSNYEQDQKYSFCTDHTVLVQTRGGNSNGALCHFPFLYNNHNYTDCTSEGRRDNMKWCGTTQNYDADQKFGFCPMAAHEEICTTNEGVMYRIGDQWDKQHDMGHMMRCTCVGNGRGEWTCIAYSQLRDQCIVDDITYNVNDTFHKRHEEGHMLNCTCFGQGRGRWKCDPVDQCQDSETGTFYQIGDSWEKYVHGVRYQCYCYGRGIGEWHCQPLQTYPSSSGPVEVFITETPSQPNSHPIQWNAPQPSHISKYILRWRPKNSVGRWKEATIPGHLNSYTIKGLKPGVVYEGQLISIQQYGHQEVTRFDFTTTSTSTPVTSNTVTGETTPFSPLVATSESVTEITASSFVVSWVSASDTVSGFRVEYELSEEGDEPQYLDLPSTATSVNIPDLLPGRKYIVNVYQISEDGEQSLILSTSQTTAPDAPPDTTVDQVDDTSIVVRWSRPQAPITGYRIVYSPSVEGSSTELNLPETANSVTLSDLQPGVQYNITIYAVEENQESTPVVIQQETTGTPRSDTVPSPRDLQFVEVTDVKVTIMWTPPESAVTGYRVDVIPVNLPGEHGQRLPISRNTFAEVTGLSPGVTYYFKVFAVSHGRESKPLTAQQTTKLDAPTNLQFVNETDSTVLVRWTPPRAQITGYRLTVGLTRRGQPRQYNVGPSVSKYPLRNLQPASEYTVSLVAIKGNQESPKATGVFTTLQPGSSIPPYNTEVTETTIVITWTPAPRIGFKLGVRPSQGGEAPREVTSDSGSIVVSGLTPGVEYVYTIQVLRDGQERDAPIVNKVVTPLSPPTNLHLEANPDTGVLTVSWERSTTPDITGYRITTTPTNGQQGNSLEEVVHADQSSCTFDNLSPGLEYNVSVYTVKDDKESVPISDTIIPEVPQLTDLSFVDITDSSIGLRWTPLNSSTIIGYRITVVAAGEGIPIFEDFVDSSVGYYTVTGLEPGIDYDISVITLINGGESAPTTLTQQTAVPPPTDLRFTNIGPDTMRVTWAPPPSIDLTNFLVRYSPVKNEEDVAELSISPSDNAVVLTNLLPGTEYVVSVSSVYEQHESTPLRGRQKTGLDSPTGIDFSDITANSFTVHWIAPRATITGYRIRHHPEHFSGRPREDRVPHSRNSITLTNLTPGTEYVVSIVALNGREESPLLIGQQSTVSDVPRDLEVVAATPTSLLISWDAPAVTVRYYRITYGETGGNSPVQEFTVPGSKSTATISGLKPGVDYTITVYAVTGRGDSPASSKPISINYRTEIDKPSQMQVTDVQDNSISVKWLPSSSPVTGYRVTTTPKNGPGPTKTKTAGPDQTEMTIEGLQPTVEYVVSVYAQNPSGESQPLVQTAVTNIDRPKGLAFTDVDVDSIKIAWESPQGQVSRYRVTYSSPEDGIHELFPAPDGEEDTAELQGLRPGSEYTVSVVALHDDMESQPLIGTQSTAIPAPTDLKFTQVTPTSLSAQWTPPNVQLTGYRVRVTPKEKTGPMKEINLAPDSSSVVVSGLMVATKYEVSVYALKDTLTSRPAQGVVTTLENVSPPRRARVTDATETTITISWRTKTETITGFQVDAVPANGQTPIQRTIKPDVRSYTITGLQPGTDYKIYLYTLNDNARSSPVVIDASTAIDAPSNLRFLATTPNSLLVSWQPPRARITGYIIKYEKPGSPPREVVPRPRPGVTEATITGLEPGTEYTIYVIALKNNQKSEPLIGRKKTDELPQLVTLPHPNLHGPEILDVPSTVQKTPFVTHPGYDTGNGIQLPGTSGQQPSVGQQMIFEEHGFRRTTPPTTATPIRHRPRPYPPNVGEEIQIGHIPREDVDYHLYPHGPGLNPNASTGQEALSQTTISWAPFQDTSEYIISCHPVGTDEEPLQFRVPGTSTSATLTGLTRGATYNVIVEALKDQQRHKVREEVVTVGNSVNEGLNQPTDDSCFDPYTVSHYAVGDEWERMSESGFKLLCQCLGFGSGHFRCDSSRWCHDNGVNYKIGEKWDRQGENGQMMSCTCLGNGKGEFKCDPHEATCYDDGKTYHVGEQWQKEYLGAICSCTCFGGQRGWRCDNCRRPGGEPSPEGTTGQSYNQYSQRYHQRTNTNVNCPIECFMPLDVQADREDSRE
Text: FIG. 21 further illustrates that RHAMM binds to the CS-1 fragment of fibomectin and not to the RGDS sequence which was previously considered to be a critical sequence for fibronectin signaling of matrix protein degradation.

LR21 cells = test: podosome formation in LR21 cells treated with exon 4 peptide (cortactin or CAS); type: cell-based
Text: Podsomome formation was visualized using either fluorescent cortactin or CAS, the latter being a particularly useful marker for podosomes as illustrated by the micrographs in FIG. 17B.

[7] = target: erk1 His-6-tagged fusion protein; test: peptide competition of erk1 His-6 binding to RHAMM v4 beads; D4 and D5 peptides present together

## COc1cccc(-c2cc(=O)c3ccccc3o2)c1N [PD09058]
[1]
  number of podosomes: reduces the number of podosomes
[2]
  wound repair (cell migration into wounds): blocks wound repair
[3]
  cell motility / locomotion: strongly reduces cellular locomotion
MDA231 cells
  cell invasion in vitro: blocks cell invasion

## CSTMMSRSHKTRSHHV [P-peptide, CSTMMSRSHKTRSHHV]
ND4 transgenic mice
  toxicological or lethal effects on animals: without observing toxicological or lethal effects
NOD mice
  toxicity: absence of any toxicity

## KQKIKHVVKLKDENSQLKSEVSKLRCQLAKKK [P-32, specific RHAMM region]
EAE in SJL/J mice
  decrease in mean clinical score: 20%

## RGGGGGGGR (Peptide that binds a hyalauronan) [peptide D, reference compound]
Excisional skin wound
  infiltration of macrophages in wounded biopsies (Glucosimimidase activity): does not inhibit macrophage infiltration
[4]
  binding to HA: does not bind HA

## RGGGRGGGR (Peptide that binds a hyalauronan) [C]
Excisional skin wound
  infiltration of macrophages in wounded biopsies (Glucosimimidase activity): inhibited the infiltration of macrophages

## RGGGRGGRR (Peptide that binds a hyalauronan) [peptide B]
Excisional skin wound
  infiltration of macrophages in wounded biopsies (Glucosimimidase activity): inhibited the infiltration of macrophages

## RGGGRGRRR (Peptide that binds a hyalauronan) [Peptide A]
[5]; 4 days after injury
  increase in collagen type la mRNA in lungs: completely inhibited
[5]; 7 days after bleomycin injury
  N-acetyl-β-glucosamimidase activity of BAL cells: significantly decreased glucosamimidase activity
[5]; after bleomycin injury
  lung histology: normal lung architecture
[5]; four days after bleomycin injury, peptide given prior to injury
  motility of BAL cells (macrophages): significantly lower cell locomotion
Excisional skin wound
  infiltration of macrophages in wounded biopsies (Glucosimimidase activity): inhibited the infiltration of macrophages

## RHAMM sequence (423-432 AA): RHAMM sequence peptide, amino acid residues 423-432 (SEQ ID NO 24) (KLRSQLVKRKQ; Homo sapien)
Human fibroblasts
  inhibition of migration of human fibroblasts: up to 40%

## SEQ. ID NO: 15: peptide mimicking RHAMM exon 3, used to raise anti-exon 3 antibodies (KLQATQKDLTESKG; listed as Mus musculus)
Invasive cells
  motility of invasive cells: block the motility of invasive cells
[6]
  binding of RHAMM to fibronectin: able to block the binding of intact RHAMM to fibronectin

## SEQ. ID NO: 16: peptide from murine RHAMM exon 4 (VSIEKEKIDEKCETEKLLEYIQEIS; listed as Mus musculus)
LR21 cells
  formation of podosomes: blocks the formation of podosomes

## KQKIKHVVKLKDENSQLKSEVSKLRSQLVKRK [D5 peptide of RHAMM]
[7]
  reduction of erk1 binding to v4: 90%

## QEKYNDTAQSLRDVTAQLESV [D4 peptide of RHAMM]
[7]
  reduction of erk1 binding to v4: 90%
